# Measured values taken from patent publication US11135223B2, “Compositions and methods for inhibiting Dkk-1” (YALE UNIVERSITY, priority 2016, dated 2021).
# System: CD4 T cells
# Assay: CD4 T cell activation and differentiation in vitro with Dkk-1 or Wnt3a
# Format: cell-based, mice
# Conditions: naïve CD4 T cells, Wnt3a 20% v/v, 96 hours
# Text: FIG. 5, comprising FIG. 5A through FIG. 5E, depicts results of experiments showing Dkk-1 induces TH2 cell polarization. FIG. 5A depicts lungs harvested for immunohistochemistry of CD3 (dark brown), CD41 (blue) and isotype control antibodies of lungs from Dkk-1^d/d mice and their wildtype littermate controls challenged with HDM extract allergen. Orange arrowheads in the images indicate co-localized CD3 T cells with CD41^+ platelets. FIG. 5B depicts ELISA analysis of Dkk-1 from plasma samples from Dkk-1^d/d mice (n=5) collected 24 hours after challenge with 50 μg HDM. FIG. 5C depicts ELISA analysis of splenic CD4 T cells from 6-8 week-old C57BL/6 mice were activated with anti-CD3 and anti-CD28 antibodies (Act) with or without Dkk-1 (30 ng/ml unless indicated) for 4 days. FIG. 5D depicts flow cytometry analysis of splenic CD4 T cells from 6-8 week-old C57BL/6 mice were activated with anti-CD3 and anti-CD28 antibodies (Act) with or without Dkk-1 (30 ng/ml unless indicated) for 4 days. FIG. 5E depicts ELISA analysis of naïve CD4 T cells stimulated anti-CD3 and anti-CD28 antibodies for 96 hr with or without Dkk-1.
# FIG. 6, comprising FIG. 6A through FIG. 6E, depicts results of experiments showing Dkk-1 induces TH2 cytokines in various T cell differentiation conditions. FIG. 6A depicts flow cytometry and ELISA analysis of naïve CD4 T cells were stimulated under TH1 polarization conditions for 96 hours with or without Dkk-1. FIG. 6B depicts flow cytometry and ELISA analysis of naïve CD4 T cells were stimulated under TH2 polarization conditions for 96 hours with or without Dkk-1. FIG. 6C depicts flow cytometry analysis of Foxp3, IL-17A, and IL-10 expression in splenic naïve CD4 T cells isolated and differentiated into iTreg for 5 days with 100 U/ml IL-2 and 1.5 ng/ml TGF-β with or without 30 ng/ml and 3 ng/ml of Dkk-1 treated during the culture. FIG. 6D depicts Gata-3 expression levels of splenic naïve CD4 T cells from 8 week-old C57BL/6 mice treated with Dkk-1 with varying doses of Dkk-1 (50, 30, 7.5 ng/ml) or Wnt3a (20% v/v) for 96 hours in the presence of anti-CD3 and anti-CD28 antibody stimulation. FIG. 6E depicts qPCR results of Tcf7 and Lef1 mRNA harvested from splenic naïve CD4 T cells from 8 week-old C57BL/6 mice stimulated with or without Dkk-1 (30 ng/ml) for 96 hours. All results were statistically non-significant. All experiments are a representative of two to three independent experiments. Student's t-test or one way-ANOVA analysis with Bonferonni's post-hoc test were performed. Small horizontal lines and error bars indicate the mean (±s.e.m.). ***, p<0.0001, **, p<0.005, *, p<0.05.
# FIG. 8, comprising FIG. 8A through FIG. 8G, depicts results of experiments showing Dkk-1 induces IL-10 in CD4 T cells via SGK-1 and p38 MAPK. FIG. 8A depicts ELISA analysis of naïve CD4 T cell differentiated into TH2 cells with or without Dkk-1 (30 ng/ml), SGK-1 inhibitor (2 μM) or p38 inhibitor (10 μM) for 96 hours. FIG. 8B depicts flow cytometry analysis of human naïve CD4 T cells (CD4^+CD25^−CD45RA^+) transduced with SGK-1 shRNA and selected with puromycin (0.5 μg/ml) for 48 hours. The selected cells were stimulated with anti-CD3 mAb (OKT3) and anti-CD28 mAb with or without Dkk-1 for 96 hr. For the last 5 hr of culture, stimulation cocktail (PMA/Ionomycin/Brefeldin A/Monensin) was added. FIG. 8C depicts intracellular staining with antibodies recognizing phospho-S6 kinase of splenic CD4^+CD25^− cells from 6 week-old C57BL/6 mice were isolated and activated with anti-CD3 and anti-CD28 mAb (2 μg/ml) with or without Dkk-1 (25 ng/ml) for indicated time points. FIG. 8D depicts intracellular staining with antibodies recognizing phospho-4E-BP1 of splenic CD4^+CD25^− cells from 6 week-old C57BL/6 mice were isolated and activated with anti-CD3 and anti-CD28 mAb (2 μg/ml) with or without Dkk-1 (25 ng/ml) for indicated time points. […]
substance,measurement,value
Wnt3a,Gata-3 expression,induced
